Measurements taken from patent US7799809B2, “Carboxamide compounds and their use as calpain inhibitors” (Abbott GmbH & Co. KG, priority 2006, dated 2010).

Assays:
Assay type in all cases: biochemical
cathepsin B = molecular target: T1, cathepsin B (Homo sapiens, UniProt P07858); experiment: Cathepsin B enzyme inhibition in vitro (kinetic fluorescence assay); conditions: cathepsin B isolated from human liver vs calpain I
T1 construct: cathepsin B—isolated from human liver (Calbiochem #219362); purchased Calbiochem 219362; host or cells: human liver (tissue-derived)
Method in brief: (§1)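 Cathepsin B (0.25 nM, human liver) with 100 μM Z-Phe-Arg-AMC; L (1 nM, human liver) with 2 μM Z-Phe-Arg-AMC; S (0.5 nM, recombinant) with 20 μM Z-Val-Val-Arg-AMC. pH 6.0 MES buffer, 2.5 mM L-cysteine, room temperature. Kinetic fluorescence (ex 390/em 460 nm); apparent Ki from IC50 by Cheng-Prusoff.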

cathepsin L = molecular target: T2, cathepsin L (Homo sapiens, UniProt P07711); experiment: Cathepsin L enzyme inhibition in vitro (kinetic fluorescence assay); conditions: cathepsin L isolated from human liver vs calpain I
T2 construct: cathepsin L—isolated from human liver (Calbiochem #219402); purchased Calbiochem 219402; host or cells: human liver (tissue-derived)
T2 sequence (P07711 114-333): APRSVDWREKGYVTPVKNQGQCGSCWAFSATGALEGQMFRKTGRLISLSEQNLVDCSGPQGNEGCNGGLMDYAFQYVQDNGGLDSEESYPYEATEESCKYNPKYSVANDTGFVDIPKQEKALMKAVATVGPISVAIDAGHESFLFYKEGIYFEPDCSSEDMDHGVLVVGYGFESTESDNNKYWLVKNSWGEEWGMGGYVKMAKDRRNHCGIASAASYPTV
Method in brief: as §1

cathepsin K = molecular target: T3, cathepsin K (Homo sapiens, UniProt P43235); experiment: Cathepsin K enzyme inhibition in vitro (kinetic fluorescence assay); conditions: cathepsin K activated from recombinant human procathepsin K vs calpain I
T3 construct: purchased Calbiochem 342001; host or cells: E. coli
T3 sequence (P43235 115-329): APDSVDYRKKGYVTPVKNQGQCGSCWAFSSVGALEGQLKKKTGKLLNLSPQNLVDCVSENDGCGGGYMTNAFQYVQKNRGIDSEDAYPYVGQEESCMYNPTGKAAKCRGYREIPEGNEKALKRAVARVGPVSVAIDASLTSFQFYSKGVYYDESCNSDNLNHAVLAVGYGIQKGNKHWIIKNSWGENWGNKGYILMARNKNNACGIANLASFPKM

cathepsin S = molecular target: T4, cathepsin S (Homo sapiens, UniProt P25774); experiment: Cathepsin S enzyme inhibition in vitro (kinetic fluorescence assay); conditions: recombinant human cathepsin S vs calpain I
T4 construct: purchased Calbiochem 219343; host or cells: E. coli
T4 sequence (P25774 115-331): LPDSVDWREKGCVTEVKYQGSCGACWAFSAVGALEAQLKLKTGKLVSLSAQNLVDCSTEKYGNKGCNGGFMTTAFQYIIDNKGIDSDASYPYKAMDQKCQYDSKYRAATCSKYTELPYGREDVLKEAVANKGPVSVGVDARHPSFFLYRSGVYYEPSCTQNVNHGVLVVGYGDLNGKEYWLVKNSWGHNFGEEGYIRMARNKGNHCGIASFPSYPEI
Method in brief: as §1

## COc1ccc(CC(NC(=O)c2cccnc2-n2ccc(-c3ccc4c(c3)OC(F)(F)O4)n2)C(=O)C(N)=O)cc1 (centres unmarked) [Example 137, N-(3-Amino-1-{[4-(methyloxy)phenyl]methyl}-2,3-dioxopropyl)-2-[3-(2,2-difluoro-1,3-benzodioxol-5-yl)-1H-pyrazol-1-yl]pyridine-3-carboxamide]
Cathepsin B
  Sel cat. B: Ki(cathepsin B)/Ki(calpain) ratio: + (+ means 10≦Ki(cathepsin B)/Ki(calpain)<30)
Cathepsin L
  Sel cat. L: Ki(cathepsin L)/Ki(calpain) ratio: ++ (++ means a Ki(cathepsin L)/Ki(calpain) ratio of ≧50)
Cathepsin K
  Sel cat. K: Ki(cathepsin K)/Ki(calpain) ratio: + (+ means 10≦Ki(cathepsin K)/Ki(calpain)<30)
Cathepsin S
  Sel cat. S: Ki(cathepsin S)/Ki(calpain) ratio: ++ (++ means a Ki(cathepsin S)/Ki(calpain) ratio of ≧100)

## NC(=O)C(=O)C(Cc1ccccc1)NC(=O)c1cccnc1-n1ccc(-c2ccc3c(c2)OC(F)(F)O3)n1 (centres unmarked) [Example 118, N-[3-Amino-2,3-dioxo-1-(phenylmethyl)propyl]-2-[3-(2,2-difluoro-1,3-benzodioxol-5-yl)-1H-pyrazol-1-yl]pyridine-3-carboxamide]
Cathepsin B
  Sel cat. B: Ki(cathepsin B)/Ki(calpain) ratio: ++ (++ means a Ki(cathepsin B)/Ki(calpain) ratio of ≧30)
Cathepsin L
  Sel cat. L: Ki(cathepsin L)/Ki(calpain) ratio: ++ (++ means a Ki(cathepsin L)/Ki(calpain) ratio of ≧50)
Cathepsin K
  Sel cat. K: Ki(cathepsin K)/Ki(calpain) ratio: + (+ means 10≦Ki(cathepsin K)/Ki(calpain)<30)
Cathepsin S
  Sel cat. S: Ki(cathepsin S)/Ki(calpain) ratio: ++ (++ means a Ki(cathepsin S)/Ki(calpain) ratio of ≧100)

## NC(=O)C(=O)C(Cc1ccccc1)NC(=O)c1cccnc1-n1ccc(-c2cc(Cl)ccc2Cl)n1 (centres unmarked) [Example 112, N-[3-Amino-2,3-dioxo-1-(phenylmethyl)propyl]-2-[3-(2,5-dichlorophenyl)-1H-pyrazol-1-yl]pyridine-3-carboxamide]
Cathepsin B
  Sel cat. B: Ki(cathepsin B)/Ki(calpain) ratio: ++ (++ means a Ki(cathepsin B)/Ki(calpain) ratio of ≧30)
Cathepsin L
  Sel cat. L: Ki(cathepsin L)/Ki(calpain) ratio: ++ (++ means a Ki(cathepsin L)/Ki(calpain) ratio of ≧50)
Cathepsin K
  Sel cat. K: Ki(cathepsin K)/Ki(calpain) ratio: ++ (++ means a Ki(cathepsin K)/Ki(calpain) ratio of ≧30)
Cathepsin S
  Sel cat. S: Ki(cathepsin S)/Ki(calpain) ratio: ++ (++ means a Ki(cathepsin S)/Ki(calpain) ratio of ≧100)

## NC(=O)C(=O)C(Cc1ccccc1)NC(=O)c1cccnc1-n1ccc(-c2ccccc2Cl)n1 (centres unmarked) [Example 54, N-(3-Amino-1-benzyl-2,3-dioxopropyl)-2-[3-(2-chlorophenyl)-1H-pyrazol-1-yl]nicotinamide]
Cathepsin B
  Sel cat. B: Ki(cathepsin B)/Ki(calpain) ratio: ++ (++ means a Ki(cathepsin B)/Ki(calpain) ratio of ≧30)
Cathepsin L
  Sel cat. L: Ki(cathepsin L)/Ki(calpain) ratio: ++ (++ means a Ki(cathepsin L)/Ki(calpain) ratio of ≧50)
Cathepsin K
  Sel cat. K: Ki(cathepsin K)/Ki(calpain) ratio: ++ (++ means a Ki(cathepsin K)/Ki(calpain) ratio of ≧30)
Cathepsin S
  Sel cat. S: Ki(cathepsin S)/Ki(calpain) ratio: ++ (++ means a Ki(cathepsin S)/Ki(calpain) ratio of ≧100)

## NC(=O)C(=O)C(Cc1ccccc1)NC(=O)c1cccnc1-n1ccc(-c2c(Cl)cccc2Cl)n1 (centres unmarked) [Example 95, N-[3-Amino-2,3-dioxo-1-(phenylmethyl)propyl]-2-[3-(2,6-dichlorophenyl)-1H-pyrazol-1-yl]pyridine-3-carboxamide]
Cathepsin B
  Sel cat. B: Ki(cathepsin B)/Ki(calpain) ratio: ++ (++ means a Ki(cathepsin B)/Ki(calpain) ratio of ≧30)
Cathepsin L
  Sel cat. L: Ki(cathepsin L)/Ki(calpain) ratio: ++ (++ means a Ki(cathepsin L)/Ki(calpain) ratio of ≧50)
Cathepsin K
  Sel cat. K: Ki(cathepsin K)/Ki(calpain) ratio: ++ (++ means a Ki(cathepsin K)/Ki(calpain) ratio of ≧30)
Cathepsin S
  Sel cat. S: Ki(cathepsin S)/Ki(calpain) ratio: ++ (++ means a Ki(cathepsin S)/Ki(calpain) ratio of ≧100)

## NC(=O)C(=O)C(Cc1ccccc1)NC(=O)c1cccnc1-n1ccc(-c2ccccc2OC(F)F)n1 (centres unmarked) [Example 166, N-[3-Amino-2,3-dioxo-1-(phenylmethyl)propyl]-2-(3-{2-[(difluoromethyl)oxy]phenyl}-1H-pyrazol-1-yl)pyridine-3-carboxamide]
Cathepsin B
  Sel cat. B: Ki(cathepsin B)/Ki(calpain) ratio: + (+ means 10≦Ki(cathepsin B)/Ki(calpain)<30)
Cathepsin L
  Sel cat. L: Ki(cathepsin L)/Ki(calpain) ratio: ++ (++ means a Ki(cathepsin L)/Ki(calpain) ratio of ≧50)
Cathepsin K
  Sel cat. K: Ki(cathepsin K)/Ki(calpain) ratio: ++ (++ means a Ki(cathepsin K)/Ki(calpain) ratio of ≧30)
Cathepsin S
  Sel cat. S: Ki(cathepsin S)/Ki(calpain) ratio: ++ (++ means a Ki(cathepsin S)/Ki(calpain) ratio of ≧100)

## COc1ccc(-c2ccn(-c3ncccc3C(=O)NC(Cc3ccccc3)C(=O)C(N)=O)n2)cc1 (centres unmarked) [Example 48, N-(3-Amino-1-benzyl-2,3-dioxopropyl)-2-[3-(4-methoxyphenyl)-1H-pyrazol-1-yl]nicotinamide]
Cathepsin B
  Sel cat. B: Ki(cathepsin B)/Ki(calpain) ratio: + (+ means 10≦Ki(cathepsin B)/Ki(calpain)<30)
Cathepsin L
  Sel cat. L: Ki(cathepsin L)/Ki(calpain) ratio: ++ (++ means a Ki(cathepsin L)/Ki(calpain) ratio of ≧50)
Cathepsin K
  Sel cat. K: Ki(cathepsin K)/Ki(calpain) ratio: + (+ means 10≦Ki(cathepsin K)/Ki(calpain)<30)
Cathepsin S
  Sel cat. S: Ki(cathepsin S)/Ki(calpain) ratio: ++ (++ means a Ki(cathepsin S)/Ki(calpain) ratio of ≧100)

## NC(=O)C(=O)C(Cc1ccccc1)NC(=O)c1cccnc1-n1ccc(-c2cccc(C(F)(F)F)c2Cl)n1 (centres unmarked) [Example 155, N-[3-Amino-2,3-dioxo-1-(phenylmethyl)propyl]-2-{3-[2-chloro-3-(trifluoromethyl)phenyl]-1H-pyrazol-1-yl}pyridine-3-carboxamide]
Cathepsin B
  Sel cat. B: Ki(cathepsin B)/Ki(calpain) ratio: ++ (++ means a Ki(cathepsin B)/Ki(calpain) ratio of ≧30)
Cathepsin L
  Sel cat. L: Ki(cathepsin L)/Ki(calpain) ratio: ++ (++ means a Ki(cathepsin L)/Ki(calpain) ratio of ≧50)
Cathepsin K
  Sel cat. K: Ki(cathepsin K)/Ki(calpain) ratio: ++ (++ means a Ki(cathepsin K)/Ki(calpain) ratio of ≧30)
Cathepsin S
  Sel cat. S: Ki(cathepsin S)/Ki(calpain) ratio: ++ (++ means a Ki(cathepsin S)/Ki(calpain) ratio of ≧100)

## NC(=O)C(=O)C(Cc1ccccc1)NC(=O)c1cccnc1-n1ccc(-c2cccc(N3CCOCC3)c2)n1 (centres unmarked) [Example 58, N-(3-Amino-1-benzyl-2,3-dioxopropyl)-2-[3-(3-morpholin-4-ylphenyl)-1H-pyrazol-1-yl]nicotinamide]
Cathepsin B
  Sel cat. B: Ki(cathepsin B)/Ki(calpain) ratio: + (+ means 10≦Ki(cathepsin B)/Ki(calpain)<30)
Cathepsin L
  Sel cat. L: Ki(cathepsin L)/Ki(calpain) ratio: ++ (++ means a Ki(cathepsin L)/Ki(calpain) ratio of ≧50)
Cathepsin K
  Sel cat. K: Ki(cathepsin K)/Ki(calpain) ratio: + (+ means 10≦Ki(cathepsin K)/Ki(calpain)<30)
Cathepsin S
  Sel cat. S: Ki(cathepsin S)/Ki(calpain) ratio: ++ (++ means a Ki(cathepsin S)/Ki(calpain) ratio of ≧100)

## COc1ccc(-c2ccn(-c3ncccc3C(=O)NC(Cc3ccccc3)C(=O)C(N)=O)n2)c(OC)c1 (centres unmarked) [Example 117, N-[3-Amino-2,3-dioxo-1-(phenylmethyl)propyl]-2-{3-[2,4-bis(methyloxy)phenyl]-1H-pyrazol-1-yl}pyridine-3-carboxamide]
Cathepsin B
  Sel cat. B: Ki(cathepsin B)/Ki(calpain) ratio: ++ (++ means a Ki(cathepsin B)/Ki(calpain) ratio of ≧30)
Cathepsin L
  Sel cat. L: Ki(cathepsin L)/Ki(calpain) ratio: ++ (++ means a Ki(cathepsin L)/Ki(calpain) ratio of ≧50)
Cathepsin K
  Sel cat. K: Ki(cathepsin K)/Ki(calpain) ratio: ++ (++ means a Ki(cathepsin K)/Ki(calpain) ratio of ≧30)
Cathepsin S
  Sel cat. S: Ki(cathepsin S)/Ki(calpain) ratio: ++ (++ means a Ki(cathepsin S)/Ki(calpain) ratio of ≧100)

## NC(=O)C(=O)C(Cc1ccccc1)NC(=O)c1cccnc1-n1ccc(-c2cc(C(F)(F)F)ccc2CN2CCOCC2)n1 (centres unmarked) [Example 163, N-[3-Amino-2,3-dioxo-1-(phenylmethyl)propyl]-2-{3-[2-(morpholin-4-ylmethyl)-5-(trifluoromethyl)phenyl]-1H-pyrazol-1-yl}pyridine-3-carboxamide]
Cathepsin B
  Sel cat. B: Ki(cathepsin B)/Ki(calpain) ratio: + (+ means 10≦Ki(cathepsin B)/Ki(calpain)<30)
Cathepsin L
  Sel cat. L: Ki(cathepsin L)/Ki(calpain) ratio: + (+ means 30≦Ki(cathepsin L)/Ki(calpain)<50)
Cathepsin K
  Sel cat. K: Ki(cathepsin K)/Ki(calpain) ratio: + (+ means 10≦Ki(cathepsin K)/Ki(calpain)<30)
Cathepsin S
  Sel cat. S: Ki(cathepsin S)/Ki(calpain) ratio: ++ (++ means a Ki(cathepsin S)/Ki(calpain) ratio of ≧100)

## NC(=O)C(=O)C(Cc1ccccc1)NC(=O)c1cccnc1-n1ccc(-c2ccc(N3CCOCC3)cc2F)n1 (centres unmarked) [Example 102, N-[3-Amino-2,3-dioxo-1-(phenylmethyl)propyl]-2-[3-(2-fluoro-4-morpholin-4-ylphenyl)-1H-pyrazol-1-yl]pyridine-3-carboxamide]
Cathepsin B
  Sel cat. B: Ki(cathepsin B)/Ki(calpain) ratio: + (+ means 10≦Ki(cathepsin B)/Ki(calpain)<30)
Cathepsin L
  Sel cat. L: Ki(cathepsin L)/Ki(calpain) ratio: ++ (++ means a Ki(cathepsin L)/Ki(calpain) ratio of ≧50)
Cathepsin K
  Sel cat. K: Ki(cathepsin K)/Ki(calpain) ratio: ++ (++ means a Ki(cathepsin K)/Ki(calpain) ratio of ≧30)
Cathepsin S
  Sel cat. S: Ki(cathepsin S)/Ki(calpain) ratio: ++ (++ means a Ki(cathepsin S)/Ki(calpain) ratio of ≧100)

## NC(=O)C(=O)C(Cc1ccccc1)NC(=O)c1cccnc1-n1ccc(-c2ccccc2)n1 (centres unmarked) [Example 5, N-(3-Amino-1-benzyl-2,3-dioxopropyl)-2-(3-phenyl-1H-pyrazol-1-yl)nicotinamide]
Cathepsin B
  Sel cat. B: Ki(cathepsin B)/Ki(calpain) ratio: + (+ means 10≦Ki(cathepsin B)/Ki(calpain)<30)
Cathepsin L
  Sel cat. L: Ki(cathepsin L)/Ki(calpain) ratio: ++ (++ means a Ki(cathepsin L)/Ki(calpain) ratio of ≧50)
Cathepsin K
  Sel cat. K: Ki(cathepsin K)/Ki(calpain) ratio: + (+ means 10≦Ki(cathepsin K)/Ki(calpain)<30)
Cathepsin S
  Sel cat. S: Ki(cathepsin S)/Ki(calpain) ratio: ++ (++ means a Ki(cathepsin S)/Ki(calpain) ratio of ≧100)

## COc1cc(Cl)ccc1-c1ccn(-c2ncccc2C(=O)NC(Cc2ccccc2)C(=O)C(N)=O)n1 (centres unmarked) [Example 139, N-[3-Amino-2,3-dioxo-1-(phenylmethyl)propyl]-2-{3-[4-chloro-2-(methyloxy)phenyl]-1H-pyrazol-1-yl}pyridine-3-carboxamide]
Cathepsin B
  Sel cat. B: Ki(cathepsin B)/Ki(calpain) ratio: + (+ means 10≦Ki(cathepsin B)/Ki(calpain)<30)
Cathepsin L
  Sel cat. L: Ki(cathepsin L)/Ki(calpain) ratio: ++ (++ means a Ki(cathepsin L)/Ki(calpain) ratio of ≧50)
Cathepsin K
  Sel cat. K: Ki(cathepsin K)/Ki(calpain) ratio: ++ (++ means a Ki(cathepsin K)/Ki(calpain) ratio of ≧30)
Cathepsin S
  Sel cat. S: Ki(cathepsin S)/Ki(calpain) ratio: ++ (++ means a Ki(cathepsin S)/Ki(calpain) ratio of ≧100)
